In US11466036B2, “Borate of azetidine derivative” (Chia Tai Tianqing Pharmaceutical Group Co., Ltd., priority 2018, dated 2022):

What was measured:
MM1.S cells = test: In vitro anti-proliferation experiment for MM1.S cells (CellTiter-Glo); format: cell-based; details: Homo sapiens, 48 h, 2 days incubation, 0.3 nM-2000 nM
Procedure: In Vitro Anti-Proliferation Experiment for MM1.S Cells
In this experiment, the effect of compounds on inhibiting cell proliferation was investigated by determining their effect on cell activity in vitro in the tumor cell line MM1.S.
MM1.S cells were seeded into a black 96-well cell culture plate at a density of 7,000 cells per well, and the plates were then incubated overnight in an incubator at 37° C., 5% CO2 and 100% relative humidity. Test compounds were added to the cell culture wells at a concentration (0.3 nM-2000 nM) and the plate was then put back into the incubator with vehicle control (DMSO added, no test compound) and blank control set. The plate was incubated for 2 days in an incubator at 37° C., 5% CO2 and 100% relative humidity. Samples were processed using a standard method of the Promega CellTiter-Glo luminescence cell activity detection kit (Promega-G7571) and luminescence signals were detected on a SpectraMax i3× of Molecular Devices plate reader. The inhibition rate of the test compound was calculated using the following formula: […]

[1] = Liver microsomal stability test, human; format: in vitro ADME; details: human (H) liver microsomes; read-out: Liver microsomal stability (T1/2, min)
Procedure: (§1) Experimental Example 2: Liver Microsomal Stability Test for Compounds
(§2) Test compounds were each co-incubated with liver microsomes from CD-1 mice, SD rats, and humans to evaluate the stability of the test compounds.
(§3) Preparation of test compound solution samples: a 10 mM DMSO solution of the example compound (5 μL) was added to a mixed solvent of DMSO (45 μL), methanol and water (450 μL, volume ratio of methanol and water was 1:1) to prepare a 100 μM test compound solution; 50 μL of the 100 μM test compound solution was added to 450 μL of 100 mM potassium phosphate buffer to give a 10 μM test compound solution.
(§4) The 10 μM test compound solution was preincubated with microsomes of three species (human, rat and mouse, respectively) for 10 minutes, and then reduced nicotinamide adenine dinucleotide phosphate (NADPH) regeneration system working solution was added to the incubation plate according to each time point to initiate the reaction, and finally at 0, 5, 10, 20, 30 and 60 minutes, stop solution (100% ACN) was added to the reaction plate to stop the reaction. The test compounds were determined using LC-MS/MS method.

[2] = Liver microsomal stability test, mouse; format: in vitro ADME, CD-1 mice; details: CD-1; mouse (M) liver microsomes; read-out: Liver microsomal stability (T1/2, min)
Procedure: as §1, §2, §3, §4

[3] = Liver microsomal stability test, rat; format: in vitro ADME, SD rats; details: SD; rat (R) liver microsomes; read-out: Liver microsomal stability (T1/2, min)
Procedure: as §1, §2, §3, §4

MDR1 = test: Cell membrane permeability test on MDR1-MDCK II cells; format: in vitro ADME; details: dog; for efflux ratio at 150 min, 2 μM: MDCK-MDR1, pH 7.4, Papp B to A/Papp A to B; for Papp A→B at 150 min, 2 μM / Papp B→A at 150 min, 2 μM: MDCK-MDR1, pH=7.4
Procedure: Experimental Example 3: Cell Membrane Permeability Test for Compounds
Test compounds were evaluated for cell membrane permeability on MDR1-MDCK II cells.
Test compounds (10 mM DMSO solution of compound) were each diluted with transfer buffer (HBSS with 10 mM Hepes, pH=7.4) and formulated into samples at a final concentration of 2 μM, and then bidirectional (A-B and B-A) administration was performed. After administration, the cell plate was incubated for 150 minutes in an incubator at 37° C., 5% CO2 and saturated humidity. After the 150 minutes of incubation, samples were collected and the concentrations of test compounds in the transfer samples were semi-quantitatively determined using LC-MS/MS method.

[4] = Stability experiment (solid sample in stability boxes, content by HPLC); format: physicochemical
Procedure: Experimental Example 4: Stability Experiment
About 50 mg of a sample was placed in a clean disposable petri dish and spread into a thin layer. The petri dish was covered with aluminum foil paper which was pricked with several small holes. The sample, in duplicate, was placed in stability boxes of 25° C.±2° C./60% RH±5% RH and 40° C.±2° C./75% RH±5% RH, respectively, and sampled at the planned time points, and the content of the compound was determined using the HPLC method, and the results are shown in Table 9.

With `CC(C)C[C@H](NC(=O)CNC(=O)[C@@H]1CCN1c1ccc(C#N)cc1F)B(O)O` (single isomer, unassigned) [Compound 3-7] the IC50 (MM1.S cells) was 90.6 nM.
For `CC(C)C[C@H](NC(=O)CNC(=O)[C@@H]1CCN1c1ccc(F)cc1F)B(O)O` (single isomer, unassigned) [Compound 4-9], the half-life [1] was 67.4 min, the half-life [2] was 67.4 min and the IC50 (MM1.S cells) was 1 nM. It also gave a half-life [3] of 43.1 min, an efflux ratio at 150 min, 2 μM (MDR1) of 19.3 and a Papp A→B at 150 min, 2 μM (MDR1) of 0.38 ×10⁻⁶ cm/s. The Papp B→A at 150 min, 2 μM (MDR1) was 7.32 ×10⁻⁶ cm/s.
`CC(C)C[C@H](NC(=O)CNC(=O)[C@@H]1CCN1c1ccc(F)cc1)B(O)O` [Compound 1-9] gave a half-life [1] of 74.3 min, a half-life [2] of 43.5 min and an IC50 (MM1.S cells) of 5.8 nM. The half-life [3] was 42.1 min.
In the case of `CC(C)C[C@H](NC(=O)CNC(=O)[C@@H]1CCN1c1ncc(F)cc1F)B(O)O` [Compound 2-8], the IC50 (MM1.S cells) is reported as 24 nM.
Work on `CC(C)C[C@H](NC(=O)CNC(=O)[C@@H]1CCN1c1nc(C(F)(F)F)cs1)B(O)O` [Compound 2-9] yielded a half-life [1] of 75 min, a half-life [2] of 37.7 min and an IC50 (MM1.S cells) of 24.2 nM. It also gave a half-life [3] of 26.5 min, an efflux ratio at 150 min, 2 μM (MDR1) of 9.33 and a Papp A→B at 150 min, 2 μM (MDR1) of 0.24 ×10⁻⁶ cm/s. It also gave a Papp B→A at 150 min, 2 μM (MDR1) of 2.24 ×10⁻⁶ cm/s.
In the case of `CC(C)C[C@H](NC(=O)CNC(=O)[C@@H]1CCN1c1ccc(F)cc1F)B1OC(=O)[C@H](CC(=O)O)O1` [Compound I-1], the “content of the compound” value ([4]; 25° C./60% RH, Day 0) is reported as 98.6%, the “content of the compound” value ([4]; 25° C./60% RH, Day 7) is reported as 97.8% and the “content of the compound” value ([4]; 25° C./60% RH, Day 14) is reported as 100%. For the same molecule, the “content of the compound” value ([4]; 25° C./60% RH, Day 21) was 100%, the “content of the compound” value ([4]; 25° C./60% RH, Day 28) was 100% and the “content of the compound” value ([4]; 40° C./75% RH, Day 0) was 98.6%. For the same molecule, the “content of the compound” value ([4]; 40° C./75% RH, Day 7) was 99.1%, the “content of the compound” value ([4]; 40° C./75% RH, Day 14) was 98.5% and the “content of the compound” value ([4]; 40° C./75% RH, Day 21) was 100%. The “content of the compound” value ([4]; 40° C./75% RH, Day 28) was 100% and the IC50 (MM1.S cells) was 13 nM.
